Laboratory results reported in patent US7494998B2, “Benzisoxazole piperazine compounds and methods of use thereof” (Hypnion, Inc., priority 2005, dated 2009).

How the values were obtained:
male Wistar rats = test: Sleep-wakefulness monitoring (EEG/EMG, SCORE-2004) in rats after oral treatment at CT-18; format: in vivo, rat; conditions: for MAXIMUM NREM SLEEP CUMULATION 3 mg/kg / LONGEST UNINTERRUPTED SLEEP BOUT 3 mg/kg: 3 mg/kg oral at CT-18; for MAXIMUM NREM SLEEP CUMULATION 10 mg/kg / LONGEST UNINTERRUPTED SLEEP BOUT 10 mg/kg: 10 mg/kg oral at CT-18; for MAXIMUM NREM SLEEP CUMULATION 30 mg/kg / LONGEST UNINTERRUPTED SLEEP BOUT 30 mg/kg: 30 mg/kg oral at CT-18
Procedure: Sleep-wakefulness, locomotor activity and body temperature are monitored in male Wistar rats treated with a test compound (i.e., benzisoxazole analog) initially at a concentration of 10 mg/kg. Higher and lower doses are assayed for select compounds (e.g., as high as 45 mg/kg, and as low as necessary to establish a no-effect dose). Treatments are administered at CT-18, the peak of the activity dominated period (6 hours after lights-off), and produced soporific (sleep-inducing) effects characterized by increased non-REM sleep time, increased sleep continuity, but without evidence of REM sleep inhibition or rebound insomnia.
Sleep-wakefulness, locomotor activity and body temperature were monitored in vivo with various compounds of the invention. Adult, male Wistar rats (250 g at time of surgery, Charles River Laboratories, Wilmington Mass.) were anesthetized (2% isoflourane in medical grade oxygen) and surgically prepared with a cranial implant to permit chronic electro-encephalogram (EEG) and electromyogram (EMG) recording. Body temperature and locomotor activity were monitored via a miniature transmitter (Mini-Mitter, Bend, Oreg.) surgically placed in the abdomen. The cranial implant consisted of stainless steel screws (two frontal [+3.2 AP from bregma, ±2.0 ML] and two occipital [−6.9 AP, ±5.5 ML]) for EEG recording. Two Teflon®-coated stainless steel wires were positioned under the nuchal trapezoid muscles for EMG recording. All leads were soldered to a miniature connector prior to surgery, and gas sterilized in ethylene oxide. The implant assembly was affixed to the skull with dental acrylic. A minimum of three weeks was allowed for surgical recovery.
Each rat was permanently housed in its own individual recording cage located within separate, ventilated compartments of custom-designed stainless steel cabinets. Each cage was enhanced with a filter-top riser and low-torque swivel-commutator. Food and water were available ad libitum. A 24-hr light-dark cycle (12 hours light, 12 hours dark) was maintained throughout the study. Animals were undisturbed for at least 48 hours before and after treatments.
Sleep and wakefulness were determined using “SCORE-2004™” (Hypnion, Worcester, Mass.)—an internet-based sleep-wake and physiological monitoring system. The system monitored amplified EEG (bandpass 1-30 Hz), integrated EMG (bandpass 10-100 Hz), body temperature and non-specific locomotor activity (LMA) via telemetry, and drinking activity, continuously and simultaneously. Arousal states were classified on-line as non-REM (NREM) sleep, REM sleep, wake, or theta-dominated wake every 10 seconds. Total drinking and locomotor activity counts, and body temperature were quantitiated and recorded each minute, using EEG feature extraction and pattern-matching algorithms. […] The classification algorithm used individually-taught EEG-arousal-state templates, plus EMG criteria to differentiate REM sleep from theta-dominated wakefulness, plus behavior-dependent contextual rules (e.g., if the animal was drinking, it is awake). Drinking and locomotor activity intensity (LMA) were recorded every 10 seconds, while body temperature was recorded each minute. Locomotor activity was detected by a telemetry receiver (Mini-Mitter) beneath the cage. Telemetry measures (LMA and body temperature) were not part of the scoring algorithm; thus, sleep-scoring and telemetry data were independent measures.
Compounds were administered at CT-18, the peak of the activity-dominated period, sufficient time was allowed to view the time course of the treatment effect before lights-on (6 hours post-treatment). Compounds were suspended in sterile 0.25% or 0.5% methylcellulose (1-2 ml/kg). Treatments were administered orally as a bolus.
A parallel group study design was employed. […]

[1] = molecular target: T1, human recombinant M1 expressed in CHO cells (Homo sapiens, UniProt P11229); conditions: reference compounds of the M1 assay; read-out: Ki (M1 binding assay, reference compounds); cited from earlier work
T1 construct: expressed in transfected cells; host or cells: CHO cells
T1 sequence (P11229 1-460): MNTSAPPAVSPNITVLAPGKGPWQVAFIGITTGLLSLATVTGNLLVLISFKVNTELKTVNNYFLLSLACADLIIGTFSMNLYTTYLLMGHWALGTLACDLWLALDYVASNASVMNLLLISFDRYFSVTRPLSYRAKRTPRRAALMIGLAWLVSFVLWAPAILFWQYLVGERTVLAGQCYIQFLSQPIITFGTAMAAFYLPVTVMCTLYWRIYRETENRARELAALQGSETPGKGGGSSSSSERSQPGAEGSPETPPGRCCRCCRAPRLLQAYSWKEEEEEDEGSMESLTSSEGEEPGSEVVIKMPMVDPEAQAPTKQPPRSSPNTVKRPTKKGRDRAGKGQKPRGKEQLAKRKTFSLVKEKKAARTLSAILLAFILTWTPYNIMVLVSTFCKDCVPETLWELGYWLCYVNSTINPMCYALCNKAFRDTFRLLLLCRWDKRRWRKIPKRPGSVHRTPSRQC

[2] = cumulative nonREM sleep defined in minutes, in min
[3] = sleep bout length defined in minutes

Structure (SMILES)	MAXIMUM NREM SLEEP CUMULATION 1 mg/kg (male Wistar rats; 1 mg/kg oral at CT-18, cumulative nonREM sleep defined in minutes, in min)	LONGEST UNINTERRUPTED SLEEP BOUT 1 mg/kg (male Wistar rats; 1 mg/kg oral at CT-18, sleep bout length defined in minutes)	MAXIMUM NREM SLEEP CUMULATION 3 mg/kg (male Wistar rats; [2])	LONGEST UNINTERRUPTED SLEEP BOUT 3 mg/kg (male Wistar rats; [3])	MAXIMUM NREM SLEEP CUMULATION 10 mg/kg (male Wistar rats; [2])	LONGEST UNINTERRUPTED SLEEP BOUT 10 mg/kg (male Wistar rats; [3])	MAXIMUM NREM SLEEP CUMULATION 30 mg/kg (male Wistar rats; [2])	LONGEST UNINTERRUPTED SLEEP BOUT 30 mg/kg (male Wistar rats; [3])	Ki [1] [pM]
CC(C)(CN1CCN(c2noc3ccccc23)CC1)C(=O)O [Compound 1]	20	6.0	16	9.3	26	14.4	50	16.2	–
O=C(O)CCN1CCN(c2noc3ccccc23)CC1 [Compound 4]	–	–	–	–	27	9.9	–	–	–
O=C(O)CCCN1CCN(c2noc3ccccc23)CC1 [Compound 10]	–	–	–	–	22	10.7	24	9.9	–
Cc1ccc2onc(N3CCN(CC(C)(C)C(=O)O)CC3)c2c1 [Compound 8]	–	–	15	4.8	29	8.6	37	14.3	–
O=C(O)C1(CN2CCN(c3noc4ccccc34)CC2)CC1 [Compound 5]	–	–	40	3.0	37	5.1	45	7.2	–
CC(C)(CN1CCN(c2noc3ccccc23)CC1)C(=O)NS(C)(=O)=O [Compound 3]	–	–	–	–	25	5.2	27	12.3	–
Cc1ccc2onc(N3CCN(CCC(=O)O)CC3)c2c1 [Compound 12]	–	–	–	–	16	7.3	–	–	–
C[N+]1(C)CCC(OC(=O)C(c2ccccc2)c2ccccc2)CC1 [4-DAMP methiodide]	–	–	–	–	–	–	–	–	270
Cc1ccc2onc(N3CCN(CCCC(=O)O)CC3)c2c1 [Compound 13]	–	–	–	–	7	−5.6	–	–	–
Cc1ccc2c(N3CCN(CC(C)(C)C(=O)O)CC3)noc2c1 [Compound 9]	–	–	24	13.6	29	12.9	–	–	–
CC(C)(CN1CCN(c2noc3ccc(F)cc23)CC1)C(=O)O [Compound 6]	–	–	–	–	18	9.8	26	13.5	–
COc1ccc2onc(N3CCN(CC(C)(C)C(=O)O)CC3)c2c1 [Compound 7]	–	–	–	–	6	−2.5	–	–	–
